ChEMBL document CHEMBL5543058, “The application of PROTAC in HDAC” (Eur J Med Chem, 2023)
One block for each molecule: values may come before it.

Key:
[1] = target: T1, Histone deacetylase 8 (Homo sapiens, UniProt Q9BY41); assay: Inhibition of HDAC8 (unknown origin) using acetyl-Gly-Ala-(N-acetyl-Lys)-amino-4-methylcoumarin as substrate measured after 30 mins by fluorescence assay
T1 sequence (Q9BY41 whole entry): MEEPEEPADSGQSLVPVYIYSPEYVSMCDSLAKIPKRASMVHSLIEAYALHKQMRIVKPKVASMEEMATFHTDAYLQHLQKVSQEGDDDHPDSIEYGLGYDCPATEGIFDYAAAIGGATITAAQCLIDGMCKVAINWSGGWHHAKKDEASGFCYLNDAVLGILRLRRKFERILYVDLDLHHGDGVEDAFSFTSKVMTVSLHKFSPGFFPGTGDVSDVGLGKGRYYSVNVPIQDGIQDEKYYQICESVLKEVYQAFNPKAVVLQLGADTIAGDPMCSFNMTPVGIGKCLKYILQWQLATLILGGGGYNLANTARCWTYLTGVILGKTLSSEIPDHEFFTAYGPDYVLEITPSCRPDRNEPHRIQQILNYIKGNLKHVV

[2] = system: Jurkat; assay: Growth inhibition of human Jurkat cells; assay type: functional
[3] = target: von Hippel-Lindau disease tumor suppressor/Histone deacetylase 1 (Homo sapiens, UniProt Q13547+P40337); assay: Protac activity at VHL/LSD1/HDAC1/CoREST complex interaction in human HCT-116 cells assessed as HDAC1 degradation by fluorescence based assay; assay type: cell-based
[4] = target: von Hippel-Lindau disease tumor suppressor/Histone deacetylase 2 (Homo sapiens, UniProt Q92769+P40337); assay: Protac activity at VHL/LSD1/HDAC2/CoREST complex interaction in human HCT-116 cells assessed as induction of HDAC2 degradation by fluorescence based assay; assay type: cell-based
[5] = target: von Hippel-Lindau disease tumor suppressor/Histone deacetylase 3 (Homo sapiens, UniProt O15379+P40337); assay: Protac activity at VHL/LSD1/HDAC3/CoREST complex interaction in human HCT-116 cells assessed as induction of HDAC3 degradation by fluorescence based assay; assay type: cell-based
[6] = system: A549; assay: Antiproliferative activity against human A549 cells assessed as inhibition of cell growth measured after 48 hrs by SRB assay; assay type: functional
[7] = system: A549; assay: Growth inhibition of human A549 cells incubated for 72 hrs by MTT assay; assay type: functional
[8] = target: T2, Histone deacetylase 8 (Homo sapiens) (UniProt Q9BY41); assay: Induction of HDAC8 degradation in human A549 cells assessed as maximum degradation at 0.1 to 160 uM measured after 10 hrs by Western blot analysis relative to control; assay type: cell-based; settings: dose 0.1-160 µM
T2 sequence (whole entry): T1 sequence (Q9BY41 whole entry)

[9] = target: Protein cereblon/Histone deacetylase 8 (Homo sapiens, UniProt Q9BY41+Q96SW2); assay: PROTAC activity at HDAC8/CRBN in human A549 cells assessed as degradation of HDAC8 by Western blot analysis; assay type: cell-based
Chain of Protein cereblon/Histone deacetylase 8 (Q96SW2 whole entry, one chain of several): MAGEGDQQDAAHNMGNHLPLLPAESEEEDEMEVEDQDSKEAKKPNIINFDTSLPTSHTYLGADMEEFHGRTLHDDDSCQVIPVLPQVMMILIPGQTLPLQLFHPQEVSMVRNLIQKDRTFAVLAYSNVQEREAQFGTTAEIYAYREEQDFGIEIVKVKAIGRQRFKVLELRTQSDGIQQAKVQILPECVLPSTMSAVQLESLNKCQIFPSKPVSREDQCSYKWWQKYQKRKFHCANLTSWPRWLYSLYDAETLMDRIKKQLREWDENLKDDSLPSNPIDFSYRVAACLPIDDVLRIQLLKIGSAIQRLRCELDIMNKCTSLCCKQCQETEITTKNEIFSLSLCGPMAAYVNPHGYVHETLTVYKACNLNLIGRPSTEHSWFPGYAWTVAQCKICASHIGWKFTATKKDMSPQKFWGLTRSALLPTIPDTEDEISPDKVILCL

Chain of von Hippel-Lindau disease tumor suppressor/Histone deacetylase 2 (Q92769 whole entry): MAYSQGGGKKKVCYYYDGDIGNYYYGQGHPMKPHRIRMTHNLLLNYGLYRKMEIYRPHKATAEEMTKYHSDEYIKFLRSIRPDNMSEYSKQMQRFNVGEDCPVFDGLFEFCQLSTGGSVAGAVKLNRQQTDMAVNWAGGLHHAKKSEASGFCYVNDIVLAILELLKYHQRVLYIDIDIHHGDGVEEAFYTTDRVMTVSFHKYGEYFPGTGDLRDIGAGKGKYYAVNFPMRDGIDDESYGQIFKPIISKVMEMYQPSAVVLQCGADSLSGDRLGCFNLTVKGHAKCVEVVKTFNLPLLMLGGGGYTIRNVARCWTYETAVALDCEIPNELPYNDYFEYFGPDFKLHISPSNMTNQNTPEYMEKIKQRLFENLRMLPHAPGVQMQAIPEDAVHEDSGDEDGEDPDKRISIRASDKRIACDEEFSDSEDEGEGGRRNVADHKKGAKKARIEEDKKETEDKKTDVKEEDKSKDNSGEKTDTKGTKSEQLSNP
Chain of von Hippel-Lindau disease tumor suppressor/Histone deacetylase 2 (P40337 whole entry): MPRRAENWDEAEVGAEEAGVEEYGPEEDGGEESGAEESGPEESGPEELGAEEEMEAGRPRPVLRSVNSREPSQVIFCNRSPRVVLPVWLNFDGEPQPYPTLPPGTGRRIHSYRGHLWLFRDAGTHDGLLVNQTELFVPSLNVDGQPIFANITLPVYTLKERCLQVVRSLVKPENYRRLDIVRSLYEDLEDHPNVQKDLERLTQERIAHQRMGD
Chain of von Hippel-Lindau disease tumor suppressor/Histone deacetylase 3 (O15379 whole entry): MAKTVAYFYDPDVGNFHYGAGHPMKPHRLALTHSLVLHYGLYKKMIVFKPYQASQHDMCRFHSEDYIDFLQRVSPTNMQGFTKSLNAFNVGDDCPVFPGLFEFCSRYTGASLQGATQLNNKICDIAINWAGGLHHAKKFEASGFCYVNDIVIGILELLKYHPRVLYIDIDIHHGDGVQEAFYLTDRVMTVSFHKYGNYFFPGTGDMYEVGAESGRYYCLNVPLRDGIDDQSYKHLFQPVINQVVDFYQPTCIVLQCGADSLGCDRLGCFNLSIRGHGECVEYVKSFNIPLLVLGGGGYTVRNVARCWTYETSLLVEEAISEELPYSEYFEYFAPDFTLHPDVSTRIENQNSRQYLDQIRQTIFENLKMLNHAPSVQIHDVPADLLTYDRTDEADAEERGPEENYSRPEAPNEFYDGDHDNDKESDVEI
Chain of von Hippel-Lindau disease tumor suppressor/Histone deacetylase 3 (P40337 whole entry): as the sequence (P40337 whole entry) above
Chain of von Hippel-Lindau disease tumor suppressor/Histone deacetylase 1 (Q13547 whole entry): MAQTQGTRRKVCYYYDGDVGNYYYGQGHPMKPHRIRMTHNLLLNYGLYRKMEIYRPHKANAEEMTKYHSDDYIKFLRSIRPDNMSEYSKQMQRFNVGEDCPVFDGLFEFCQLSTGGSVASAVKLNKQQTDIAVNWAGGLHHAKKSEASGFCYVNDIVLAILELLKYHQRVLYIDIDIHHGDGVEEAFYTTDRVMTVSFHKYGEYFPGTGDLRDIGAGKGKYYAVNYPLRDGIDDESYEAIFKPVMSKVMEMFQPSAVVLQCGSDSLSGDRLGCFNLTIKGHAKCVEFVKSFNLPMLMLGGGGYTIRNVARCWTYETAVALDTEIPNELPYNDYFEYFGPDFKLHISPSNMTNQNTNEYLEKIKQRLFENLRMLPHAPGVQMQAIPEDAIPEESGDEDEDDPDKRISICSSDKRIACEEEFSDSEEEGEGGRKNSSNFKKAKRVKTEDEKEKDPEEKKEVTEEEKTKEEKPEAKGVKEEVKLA
Chain of von Hippel-Lindau disease tumor suppressor/Histone deacetylase 1 (P40337 whole entry): as the sequence (P40337 whole entry) above

SMILES: Cc1ncsc1-c1ccc(CNC(=O)[C@@H]2C[C@@H](O)CN2C(=O)[C@@H](NC(=O)CCCCCCCCCCC(=O)Nc2ccc(C(=O)Nc3ccccc3N)cc2)C(C)(C)C)cc1
DC50 [3]: 1 µM | DC50 [4]: 1 µM | DC50 [5]: 1 µM

SMILES: COc1ccc(Cn2ccc3ccc(C(=O)NO)cc32)cc1
GI50 [6]: 15.8 µM

SMILES: O=C1CCC(N2C(=O)c3cccc(NCc4cn(CCOCCOc5ccc(Cn6ccc7ccc(C(=O)NO)cc76)cc5)nn4)c3C2=O)C(=O)N1 (stereo unspecified)
GI50 [7]: 9.55 µM | Emax [8]: 95% | DC50 [9]: 0.58 µM

Other lines, results leading:

IC50 [1]: 0.372 µM | GI50 [2]: 0.78 µM
SMILES: O=C1CCC(N2C(=O)c3cccc(NCCCCCCCCCCCNC(=O)c4cccc(SCc5cn(-c6cccc(C(=O)NO)c6)nn5)c4)c3C2=O)C(=O)N1 (stereo unspecified)

IC50 [1]: 0.053 µM | GI50 [2]: 7.09 µM
SMILES: O=C(NO)c1cccc(-n2cc(CSc3ccccc3)nn2)c1
